# Laboratory results as given in publication PMC4021529 (British Journal of Cancer, 2014).
# How the values were obtained:
# [1] = QTcF interval, triplicate 12-lead ECG; type: in vivo, human; details: for maximal mean change (±s.d.) from baseline in QTcF: 2 h post-administration, first two courses
# Adverse events = type: in vivo, human
# [2] = schedule A, 100 mg (n=3), irrespective of relatedness
# [3] = schedule A, 250 mg (n=6), irrespective of relatedness
# [4] = schedule A, 300 mg (n=17), irrespective of relatedness
# [5] = schedule A, 350 mg (n=3), irrespective of relatedness
# [6] = schedule A, total (n=32), irrespective of relatedness
# [7] = schedule B, 50 mg (n=4), irrespective of relatedness
# [8] = schedule B, 100 mg (n=4), irrespective of relatedness
# [9] = schedule B, 150 mg (n=16), irrespective of relatedness
# [10] = schedule B, 200 mg (n=3), irrespective of relatedness
smiles,measurement,setting,value
CC[C@@H]1C(=O)N(C)c2cnc(Nc3ccc(C(=O)N[C@H]4CC[C@H](N5CCN(CC6CC6)CC5)CC4)cc3OC)nc2N1C(C)C [volasertib],QTcF at 8-h post-dose assessment,[1]; first course,returned to baseline levels
same,clinically relevant cardiac AEs related to a prolonged QT interval,[1]; in vivo,No related clinically relevant cardiac AEs
same,maximal mean change (±s.d.) from baseline in QTcF,"[1]; schedule A, 300 mg",21.0 (±10.6) ms
same,maximal mean change (±s.d.) from baseline in QTcF,"[1]; schedule B, 150 mg",14.9 (±11.7) ms
same,deaths during the study,"Adverse events; all due to underlying cancer, none considered related to volasertib",three deaths
same,"Abdominal pain grade 3, number of patients",Adverse events; [2],1 n
same,"Anaemia grade 3, number of patients",Adverse events; [2],1 n
same,"Fatigue grade 3, number of patients",Adverse events; [2],1 n
same,"Neutropenia grade 3, number of patients",Adverse events; [2],1 n
same,"Thrombocytopenia grade 3, number of patients",Adverse events; [2],1 n
same,"Upper GI haemorrhage grade 3, number of patients",Adverse events; [2],1 n
same,"Anaemia grade 3, number of patients",Adverse events; [3],3 n
same,"Anaemia grade 4, number of patients",Adverse events; [3],1 n
same,"Hypokalaemia grade 3, number of patients",Adverse events; [3],1 n
same,"Ileus grade 3, number of patients",Adverse events; [3],1 n
same,"Leukopenia grade 4, number of patients",Adverse events; [3],1 n
same,"Neutropenia grade 4, number of patients",Adverse events; [3],2 n
same,"Thrombocytopenia grade 3, number of patients",Adverse events; [3],1 n
same,"Thrombocytopenia grade 4, number of patients",Adverse events; [3],1 n
same,"Abdominal pain grade 3, number of patients",Adverse events; [4],2 n
same,"Anaemia grade 3, number of patients",Adverse events; [4],2 n
same,"Anaemia grade 4, number of patients",Adverse events; [4],2 n
same,"Fatigue grade 3, number of patients",Adverse events; [4],1 n
same,"Febrile neutropenia grade 3, number of patients",Adverse events; [4],1 n
same,"Febrile neutropenia grade 4, number of patients",Adverse events; [4],1 n
same,"Infection grade 3, number of patients",Adverse events; [4],1 n
same,"Leukopenia grade 3, number of patients",Adverse events; [4],7 n
same,"Neutropenia grade 3, number of patients",Adverse events; [4],5 n
same,"Neutropenia grade 4, number of patients",Adverse events; [4],5 n
same,"Pain grade 3, number of patients",Adverse events; [4],1 n
same,"Thrombocytopenia grade 3, number of patients",Adverse events; [4],7 n
same,"Thrombocytopenia grade 4, number of patients",Adverse events; [4],2 n
same,"Anaemia grade 3, number of patients",Adverse events; [5],2 n
same,"Anaemia grade 4, number of patients",Adverse events; [5],1 n
same,"Febrile neutropenia grade 3, number of patients",Adverse events; [5],1 n
same,"Leukopenia grade 3, number of patients",Adverse events; [5],2 n
same,"Neutropenia grade 4, number of patients",Adverse events; [5],3 n
same,"Thrombocytopenia grade 3, number of patients",Adverse events; [5],1 n
same,"Thrombocytopenia grade 4, number of patients",Adverse events; [5],2 n
same,"drug-related anaemia, incidence","Adverse events; schedule A, all doses",40.6%
same,"drug-related leukopenia, incidence","Adverse events; schedule A, all doses",56.3%
same,"drug-related neutropenia, incidence","Adverse events; schedule A, all doses",56.3%
same,"drug-related thrombocytopenia, incidence","Adverse events; schedule A, all doses",62.5%
same,"Abdominal pain grade 3, number of patients",Adverse events; [6],3 (9.4) n (%)
same,"Anaemia grade 3, number of patients",Adverse events; [6],8 (25.0) n (%)
same,"Anaemia grade 4, number of patients",Adverse events; [6],4 (12.5) n (%)
same,"Fatigue grade 3, number of patients",Adverse events; [6],2 (6.3) n (%)
same,"Febrile neutropenia grade 3, number of patients",Adverse events; [6],2 (6.3) n (%)
same,"Febrile neutropenia grade 4, number of patients",Adverse events; [6],1 (3.1) n (%)
same,"Hypokalaemia grade 3, number of patients",Adverse events; [6],1 (3.1) n (%)
same,"Ileus grade 3, number of patients",Adverse events; [6],1 (3.1) n (%)
same,"Infection grade 3, number of patients",Adverse events; [6],1 (3.1) n (%)
same,"Leukopenia grade 3, number of patients",Adverse events; [6],9 (28.1) n (%)
same,"Leukopenia grade 4, number of patients",Adverse events; [6],1 (3.1) n (%)
same,"Neutropenia grade 3, number of patients",Adverse events; [6],6 (18.8) n (%)
same,"Neutropenia grade 4, number of patients",Adverse events; [6],10 (31.3) n (%)
same,"Pain grade 3, number of patients",Adverse events; [6],1 (3.1) n (%)
same,"Thrombocytopenia grade 3, number of patients",Adverse events; [6],10 (31.3) n (%)
same,"Thrombocytopenia grade 4, number of patients",Adverse events; [6],5 (15.6) n (%)
same,"Upper GI haemorrhage grade 3, number of patients",Adverse events; [6],1 (3.1) n (%)
same,"Anaemia grade 3, number of patients",Adverse events; [7],1 n
same,"Infection grade 3, number of patients",Adverse events; [7],1 n
same,"Dyspnoea grade 3, number of patients",Adverse events; [8],1 n
same,"Hypokalaemia grade 3, number of patients",Adverse events; [8],1 n
same,"Abdominal pain grade 3, number of patients",Adverse events; [9],2 n
same,"Anaemia grade 3, number of patients",Adverse events; [9],1 n
same,"Anaemia grade 4, number of patients",Adverse events; [9],2 n
same,"Dizziness grade 3, number of patients",Adverse events; [9],1 n
same,"Fatigue grade 3, number of patients",Adverse events; [9],1 n
same,"Leukopenia grade 3, number of patients",Adverse events; [9],1 n
same,"Neutropenia grade 3, number of patients",Adverse events; [9],2 n
same,"Neutropenia grade 4, number of patients",Adverse events; [9],1 n
same,"Pain grade 3, number of patients",Adverse events; [9],2 n
same,"Rash grade 3, number of patients",Adverse events; [9],1 n
same,"Upper GI haemorrhage grade 3, number of patients",Adverse events; [9],1 n
same,"Vomiting grade 3, number of patients",Adverse events; [9],1 n
same,"Abdominal distension grade 3, number of patients",Adverse events; [10],1 n
same,"Anaemia grade 3, number of patients",Adverse events; [10],2 n
same,"Decreased appetite grade 3, number of patients",Adverse events; [10],1 n
same,"Fatigue grade 3, number of patients",Adverse events; [10],1 n
same,"Febrile neutropenia grade 3, number of patients",Adverse events; [10],1 n
